Laboratory results reported in US20250223268A1, “4-Methylsulfonylbenzamide Compound, Preparation Method, Herbicidal Composition And Use” (Jiangsu Flag Chemical Industry Co., Ltd., priority 2022, published 2025).

How the values were obtained:
Assay type in all cases: in vivo
[1] = test system: Leptochloa chinensis; test: Greenhouse herbicidal activity and crop safety comparison (Test Example 2); conditions: Rate 150 g/ha
Summary of the method: (§1)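 Fresh weight inhibition, banded into grades A to E (E <20%), was rated 14-21 days after foliar spraying of 3-6 leaf plants, or 14-30 days after a soil spray applied 24 h post-sowing.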

[2] = test system: Oryza sativa subsp. indica; test: as above; conditions: Rate 150 g/ha
Summary of the method: as §1

[3] = test system: Oryza sativa subsp. japonica; test: as above; conditions: Rate 150 g/ha
Summary of the method: as §1

[4] = test system: Echinochloa crusgalli; test: as above; conditions: Rate 150 g/ha
Summary of the method: as §1

[5] = test system: Leptochloa chinensis; test: Greenhouse herbicidal activity assay, post-emergence; conditions: Post-emergence test, rate 150 g a.i./hm^2; grade by fresh weight inhibition rate
Summary of the method: (§2)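 Letter grades (A: ≥80% to 100%; C: ≥40% to <60%; E: <20%) express fresh weight inhibition recorded 14-21 days post-spray. Weeds were treated on the leaves once they reached 3-6 leaves in chamber-grown pots, allowed to dry naturally, then kept in the chamber.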

[6] = test system: Digitaria sanguinalis; test: as above; conditions: Post-emergence test, rate 150 g a.i./hm^2; grade by fresh weight inhibition rate
Summary of the method: as §2

[7] = test system: Eclipta prostrata; test: as above; conditions: Post-emergence test, rate 150 g a.i./hm^2; grade by fresh weight inhibition rate
Summary of the method: as §2

[8] = test system: Cyperus iria; test: as above; conditions: Post-emergence test, rate 150 g a.i./hm^2; grade by fresh weight inhibition rate
Summary of the method: as §2

[9] = test system: Echinochloa crusgalli; test: as above; conditions: Post-emergence test, rate 150 g a.i./hm^2; grade by fresh weight inhibition rate
Summary of the method: as §2

[10] = test system: Zea mays; test: Greenhouse herbicidal activity and crop safety comparison (Test Example 2)
Summary of the method: as §1

[11] = test system: Digitaria sanguinalis; test: as above; conditions: Digitaria sanguinalis, read-out: Digitaria sanguinalis, control efficacy grading (fresh weight inhibition rate)
Summary of the method: as §1

Row | Compound | Leptochloa chinensis, control efficacy grading (fresh weight inhibition rate) [1] | Oryza sativa subsp. indica, grading of fresh weight inhibition rate (crop safety) [2] | Oryza sativa subsp. japonica, grading of fresh weight inhibition rate (crop safety) [3] | Echinochloa crusgalli, control efficacy grading (fresh weight inhibition rate) [4] | Control efficacy grade, Leptochloa chinensis [5] | Control efficacy grade, Digitaria sanguinalis [6] | Control efficacy grade, Eclipta prostrata [7] | Control efficacy grade, Cyperus iria [8] | Control efficacy grade, Echinochloa crusgalli [9] | Zea mays, grading of fresh weight inhibition rate (crop safety) ([10]; Rate 18.75 g/ha) | Zea mays, grading of fresh weight inhibition rate (crop safety) ([10]; Rate 75 g/ha) | Zea mays, grading of fresh weight inhibition rate (crop safety) ([10]; Rate 150 g/ha) | inhibition at 18.75 g/ha ([11]; Rate 18.75 g/ha) | inhibition at 75 g/ha ([11]; Rate 75 g/ha) | inhibition at 150 g/ha ([11]; Rate 150 g/ha)
1 | CC(C)c1nnc(NC(=O)c2ccc(S(C)(=O)=O)c(S(=O)(=O)C(C)C)c2Cl)o1 [Compound 3-508] | A (Fresh weight inhibition rate≥80% to 100%) | E (Fresh weight inhibition rate<20%) | E (Fresh weight inhibition rate<20%) | A (Fresh weight inhibition rate≥80% to 100%) | A (Fresh weight inhibition rate≥80% to 100%) | A (Fresh weight inhibition rate≥80% to 100%) | A (Fresh weight inhibition rate≥80% to 100%) | A (Fresh weight inhibition rate≥80% to 100%) | A (Fresh weight inhibition rate≥80% to 100%) | – | – | – | – | – | –
2 | Cc1nnc(NC(=O)c2ccc(S(C)(=O)=O)c(S(=O)(=O)C3CC3)c2Cl)o1 [Compound 3-81] | A (Fresh weight inhibition rate≥80% to 100%) | E (Fresh weight inhibition rate<20%) | E (Fresh weight inhibition rate<20%) | A (Fresh weight inhibition rate≥80% to 100%) | A (Fresh weight inhibition rate≥80% to 100%) | A (Fresh weight inhibition rate≥80% to 100%) | A (Fresh weight inhibition rate≥80% to 100%) | A (Fresh weight inhibition rate≥80% to 100%) | A (Fresh weight inhibition rate≥80% to 100%) | – | – | – | – | – | –
3 | CCc1nnc(NC(=O)c2ccc(S(C)(=O)=O)c(S(=O)(=O)C(C)CC)c2Cl)o1 (racemic) [Compound 3-406] | A (Fresh weight inhibition rate≥80% to 100%) | E (Fresh weight inhibition rate<20%) | E (Fresh weight inhibition rate<20%) | A (Fresh weight inhibition rate≥80% to 100%) | A (Fresh weight inhibition rate≥80% to 100%) | A (Fresh weight inhibition rate≥80% to 100%) | A (Fresh weight inhibition rate≥80% to 100%) | A (Fresh weight inhibition rate≥80% to 100%) | A (Fresh weight inhibition rate≥80% to 100%) | – | – | – | – | – | –
4 | C=CCS(=O)(=O)c1c(S(C)(=O)=O)ccc(C(=O)Nc2nnc(C)o2)c1Cl [Compound 3-116] | A (Fresh weight inhibition rate≥80% to 100%) | E (Fresh weight inhibition rate<20%) | E (Fresh weight inhibition rate<20%) | A (Fresh weight inhibition rate≥80% to 100%) | A (Fresh weight inhibition rate≥80% to 100%) | A (Fresh weight inhibition rate≥80% to 100%) | A (Fresh weight inhibition rate≥80% to 100%) | C (Fresh weight inhibition rate≥40% to <60%) | A (Fresh weight inhibition rate≥80% to 100%) | – | – | – | – | – | –
5 | C=CCS(=O)(=O)c1c(S(C)(=O)=O)ccc(C(=O)Nc2nnc(CC)o2)c1Cl [Compound 3-458] | A (Fresh weight inhibition rate≥80% to 100%) | E (Fresh weight inhibition rate<20%) | E (Fresh weight inhibition rate<20%) | A (Fresh weight inhibition rate≥80% to 100%) | A (Fresh weight inhibition rate≥80% to 100%) | A (Fresh weight inhibition rate≥80% to 100%) | A (Fresh weight inhibition rate≥80% to 100%) | A (Fresh weight inhibition rate≥80% to 100%) | A (Fresh weight inhibition rate≥80% to 100%) | – | – | – | – | – | –
6 | C=CCS(=O)(=O)c1c(S(C)(=O)=O)ccc(C(=O)Nc2nnc(C(C)C)o2)c1Cl [Compound 3-574] | A (Fresh weight inhibition rate≥80% to 100%) | E (Fresh weight inhibition rate<20%) | E (Fresh weight inhibition rate<20%) | A (Fresh weight inhibition rate≥80% to 100%) | A (Fresh weight inhibition rate≥80% to 100%) | B (Fresh weight inhibition rate≥260% to <80%) | A (Fresh weight inhibition rate≥80% to 100%) | A (Fresh weight inhibition rate≥80% to 100%) | A (Fresh weight inhibition rate≥80% to 100%) | – | – | – | – | – | –
7 | C=CCS(=O)(=O)c1c(S(C)(=O)=O)ccc(C(=O)Nc2nnc(C3CC3)o2)c1Cl [Compound 3-690] | A (Fresh weight inhibition rate≥80% to 100%) | E (Fresh weight inhibition rate<20%) | E (Fresh weight inhibition rate<20%) | A (Fresh weight inhibition rate≥80% to 100%) | A (Fresh weight inhibition rate≥80% to 100%) | B (Fresh weight inhibition rate≥260% to <80%) | A (Fresh weight inhibition rate≥80% to 100%) | A (Fresh weight inhibition rate≥80% to 100%) | A (Fresh weight inhibition rate≥80% to 100%) | – | – | – | – | – | –
8 | CCc1nnc(NC(=O)c2ccc(S(C)(=O)=O)c(S(=O)(=O)C3CC3)c2Cl)o1 [Compound 3-423] | A (Fresh weight inhibition rate≥80% to 100%) | E (Fresh weight inhibition rate<20%) | E (Fresh weight inhibition rate<20%) | A (Fresh weight inhibition rate≥80% to 100%) | A (Fresh weight inhibition rate≥80% to 100%) | A (Fresh weight inhibition rate≥80% to 100%) | A (Fresh weight inhibition rate≥80% to 100%) | A (Fresh weight inhibition rate≥80% to 100%) | A (Fresh weight inhibition rate≥80% to 100%) | – | – | – | – | – | –
9 | CCc1nnc(NC(=O)c2ccc(S(C)(=O)=O)c(S(=O)(=O)C3CCC3)c2Cl)o1 [Compound 3-428] | A (Fresh weight inhibition rate≥80% to 100%) | E (Fresh weight inhibition rate<20%) | E (Fresh weight inhibition rate<20%) | A (Fresh weight inhibition rate≥80% to 100%) | A (Fresh weight inhibition rate≥80% to 100%) | A (Fresh weight inhibition rate≥80% to 100%) | A (Fresh weight inhibition rate≥80% to 100%) | A (Fresh weight inhibition rate≥80% to 100%) | A (Fresh weight inhibition rate≥80% to 100%) | – | – | – | – | – | –
10 | CCC(C)S(=O)(=O)c1c(S(C)(=O)=O)ccc(C(=O)Nc2nnco2)c1Cl (racemic) [Compound 3-290] | A (Fresh weight inhibition rate≥80% to 100%) | E (Fresh weight inhibition rate<20%) | E (Fresh weight inhibition rate<20%) | A (Fresh weight inhibition rate≥80% to 100%) | A (Fresh weight inhibition rate≥80% to 100%) | A (Fresh weight inhibition rate≥80% to 100%) | A (Fresh weight inhibition rate≥80% to 100%) | A (Fresh weight inhibition rate≥80% to 100%) | A (Fresh weight inhibition rate≥80% to 100%) | – | – | – | – | – | –
11 | Cc1nonc1NC(=O)c1ccc(S(C)(=O)=O)c([S+](C)[O-])c1Cl (stereo not drawn) [CK6, reference compound] | – | – | – | – | – | – | – | – | – | E (Fresh weight inhibition rate<20%) | D (Fresh weight inhibition rate≥20% to <40%) | D (Fresh weight inhibition rate≥20% to <40%) | < 20% | 40 to 60% | 40 to 60%
